From US5578496A, “Detection of autoantibodies associated with the disease myasthenia gravis” (Board of Regents, Baylor College of Medicine, priority 1994, dated 1996)
*1 amine or outer side, *2 acyl side, *3 side chain or, on linkers, in order; H or OH if unused. Where a SMILES comes first, the peptide text is derived from it. Bridges are numbered along the chain shown (N, C = ends). Where no end group is shown, it is not given here. mPEG = monomethoxypolyethylene glycol; Suc = O=C(CCC(=O)[*:2])[*:1]

How the values were obtained:
whole Torpedo AChR = assay: Radioimmunoassay of anti-AChR antisera from pretreated mice: antibody binding to whole AChR; format: in vivo, C57/BL6 mice; conditions: Group 1 compared to control groups; P>0.5
Experimental: (§1) Six weeks old C57/BL6 mice were purchased from Charles River Breeding Laboratories (Wilmington, Mass.). Preimmune sera were obtained from the mice for use as controls in subsequent antibody binding assays. After 2-weeks rest, the mice were divided into three groups which received, at eleven, seven and three days before immunization with AChR, an intraperitoneal injection (5 μg in 25 μl of PBS [0.15M NaCl in 0.01M sodium phosphate buffer, pH 7.2]) of either the mPEG-(α125-148) conjugate (Group 1), mPEG-nonsense peptide conjugate (Group 2) or unaltered free peptide α125-148 (Group 3) (FIG. 5). Then, on day 0, the mice were immunized subcutaneously in one hind footpad and intramuscularly in the same side shoulder with 20 μg of Torpedo AChR in 100 μl emulsion containing equal volumes of complete Freund's adjuvant and PBS. Thirty days later, the mice were immunized with a similar dose of the receptor in the opposite footpad and shoulder. On the 37th day, test bleeds were obtained from the mice for determination of the antibody titers. Electrophysiological studies were performed on the 38th and 39th days. […]
(§2) One mg of the synthetic peptide was dissolved in 50 μl dimethylformamide and then diluted with PBS to 25 μg/ml. […] The plates were incubated for 3 hours at room temperature, after which they were washed and the wells were cut out and counted for bound radioactivity. […]

[1] = system: experimental autoimmune myasthenia gravis (EAMG); assay: Electromyography (repetitive nerve stimulation) for electrophysiological EAMG after immunization with Torpedo AChR; format: in vivo, C57/BL6 mice; conditions: for mean amplitude change of muscle action potentials / mice showing a decremental response greater than 10%: 5 μg i.p. at 11, 7 and 3 days before immunization with Torpedo AChR, EMG on days 38-39
Experimental: Six weeks old C57/BL6 mice were purchased from Charles River Breeding Laboratories (Wilmington, Mass.). Preimmune sera were obtained from the mice for use as controls in subsequent antibody binding assays. […] Then, on day 0, the mice were immunized subcutaneously in one hind footpad and intramuscularly in the same side shoulder with 20 μg of Torpedo AChR in 100 μl emulsion containing equal volumes of complete Freund's adjuvant and PBS. Thirty days later, the mice were immunized with a similar dose of the receptor in the opposite footpad and shoulder. On the 37th day, test bleeds were obtained from the mice for determination of the antibody titers. Electrophysiological studies were performed on the 38th and 39th days. Finally, the mice were sacrificed on the 40th day and lymph node cells were obtained for T cell studies. To document the electrophysiological evidence of EAMG, amplitudes of serial muscle action potentials were measured by electromyography (EMG) during the repetitive stimulation of the nerve in immunized mice, using the Mystro EMG system (TECA Corporation). A pair of wire electrodes were surgically implanted, encircling the sciatic nerve, two days before EMG. The nerve was stimulated through the implanted electrodes by 3 Hz trains of supramaximal electric current with a duration of 200 microseconds. The corresponding muscle action potentials were recorded with an electrode subcutaneously inserted over the gastrocnemius muscle. A reference electrode was placed at the ankle. Ether inhalation was used during the surgical and recording procedures. […] Students' t-test was used to analyze the differences of amplitude changes between the two groups. A typical myasthenic response of a greater than 10% decrement was considered to constitute an electrophysiological evidence of EAMG. The frequency of electrophysiological EAMG was calculated in each group and analyzed by chi-square test.

peptide α45-60 = assay: Radioimmunoassay of anti-AChR antisera from pretreated mice: antibody binding to peptide α45-60; format: in vivo, C57/BL6 mice; conditions: Group 1 compared to control groups; P>0.1-0.5
Experimental: as §1, §2

peptide α125-148 = assay: Radioimmunoassay of anti-AChR antisera from pretreated mice: antibody binding to peptide α125-148; format: in vivo, C57/BL6 mice; conditions: for antibody binding to peptide α125-148, mean net cpm ± standard deviation: anti-AChR antisera of individual mice, day 37 bleeds; for antibody binding to peptide α125-148, pooled antisera in serial dilutions: pooled serum of each group, various dilutions; for antibodies bound to peptide α125-148 in anti-AChR antisera: pretreatment prior to immunization with Torpedo AChR
Experimental: Six weeks old C57/BL6 mice were purchased from Charles River Breeding Laboratories (Wilmington, Mass.). Preimmune sera were obtained from the mice for use as controls in subsequent antibody binding assays. After 2-weeks rest, the mice were divided into three groups which received, at eleven, seven and three days before immunization with AChR, an intraperitoneal injection (5 μg in 25 μl of PBS [0.15M NaCl in 0.01M sodium phosphate buffer, pH 7.2]) of either the mPEG-(α125-148) conjugate (Group 1), mPEG-nonsense peptide conjugate (Group 2) or unaltered free peptide α125-148 (Group 3) (FIG. 5). Then, on day 0, the mice were immunized subcutaneously in one hind footpad and intramuscularly in the same side shoulder with 20 μg of Torpedo AChR in 100 μl emulsion containing equal volumes of complete Freund's adjuvant and PBS. Thirty days later, the mice were immunized with a similar dose of the receptor in the opposite footpad and shoulder. On the 37th day, test bleeds were obtained from the mice for determination of the antibody titers. Electrophysiological studies were performed on the 38th and 39th days. Finally, the mice were sacrificed on the 40th day and lymph node cells were obtained for T cell studies.
One mg of the synthetic peptide was dissolved in 50 μl dimethylformamide and then diluted with PBS to 25 μg/ml. A solution of Torpedo AChR in PBS was prepared to contain 2.5 μg/ml. Aliquots (50 μl/well) of the peptide or AChR solutions were added to a 96-well microtiter plate (Falcon Micro Test III flexible assay plate, Becton Dickinson, Oxcard, Calif.) and the plates were incubated at room temperature overnight. After washing 3 times with PBS, the plates were blocked with 0.25% bovine serum albumin (BSA [bovine serum albumin]) in PBS (50 μl/well) at 37° C. for 90 minutes. The plates were washed again 5 times with PBS and to each well was added 50 μl of the serum from AChR-immunized mice, pre-diluted with PBS containing 0.10% BSA, and the plates were covered and allowed to stand at room temperature overnight. After 5 washes with PBS, 50 μl of rabbit IgG antibodies (2.5 μg/ml) against mouse IgG and IgM (Accurate Chemical Scientific Corporation, Westbury, N.Y.) was added to each well and the plates were incubated at 37° C. for 3 hours. The plates were then washed 5 times with PBS and ^125 I-labeled protein A (2×10^5cpm in 50 μl of PBS-0.1% BSA) was added to each well. The plates were incubated for 3 hours at room temperature, after which they were washed and the wells were cut out and counted for bound radioactivity. Pre-immune serum samples, obtained from the mice prior to any experimental treatments, were used as controls to correct for non-specific binding.

lymph node cells (LNC) = assay: T cell proliferation assay of lymph node cells from AChR-primed mice; format: cell-based, C57/BL6 mice; conditions: LNC challenged with overlapping Torpedo AChR α chain peptides, α125-148 and AChR; compared with mPEG-Nonsense peptide group
Experimental: as §1, with “PBS.” for “PBS. Thirty days later, the mice were immunized with a similar dose of the receptor in the opposite footpad and shoulder. On the 37th day, test bleeds were obtained from the mice for determination of the antibody titers. Electrophysiological studies were performed on the 38th and 39th days.”
Lymph node cells (LNC) were harvested from the AChR-primed mice of each group ten or eleven days after the last AChR immunization. […] The number of viable cells was determined by vital staining with fluorescein diacetage. […] After incubation for 3 days at 37° C. in a humidified air/CO2 (19:1) atmosphere, the cultures were pulsed (18 hr) with 1 μCi/well [^3 H]-thymidine (Research Products International, Mount Prospect, Ill.) and then harvested on to glass microfiber filters (Whatman, Clinton, N.J.) for counting of radioactivity by liquid scintillation.

peptide α182-198 = assay: Radioimmunoassay of anti-AChR antisera from pretreated mice: antibody binding to peptide α182-198; format: in vivo, C57/BL6 mice; conditions: Group 1 compared to control groups; P>0.1-0.5
Experimental: as §1, §2

Compound	antibodies against whole receptor (whole Torpedo AChR)	mean amplitude change of muscle action potentials [1]	mice showing a decremental response greater than 10% [1]	effect on development of electrophysiological EAMG ([1]; prior administration, then immunization with AChR)	antibodies against peptide α45-60 (peptide α45-60)	antibody binding to peptide α125-148, mean net cpm ± standard deviation (peptide α125-148)	antibody binding to peptide α125-148, pooled antisera in serial dilutions (peptide α125-148)	antibodies bound to peptide α125-148 in anti-AChR antisera (peptide α125-148)	T cell proliferation profiles (lymph node cells (LNC))	antibodies against peptide α182-198 (peptide α182-198)
mPEG-(α125-148): monomethoxypolyethylene glycol coupled via succinyl to the N-terminal α-NH2 of Torpedo AChR peptide α125-148 (Group 1) ({mPEG-Suc}-KSYCEIIVTHFPFDQQNCTMKLGI; disulfide 4-18 (inferred); UniProt P02710 149-172, looked up, fragment)	no significant suppression	-5.4%	20%	suppresses development of electrophysiological EAMG but the suppression was incomplete	no significant suppression	1414±1801 cpm	consistently lower amounts of antibody binding	significantly decreased	did not show meaningful differences	no significant suppression
CC[C@H](C)[C@H](NC(=O)CNC(=O)[C@H](CC(C)C)NC(=O)[C@H](CCCCN)NC(=O)[C@H](CCSC)NC(=O)[C@@H](NC(=O)[C@@H]1CSSC[C@H](NC(=O)[C@H](Cc2ccc(O)cc2)NC(=O)[C@H](CO)NC(=O)[C@@H](N)CCCCN)C(=O)N[C@@H](CCC(=O)O)C(=O)N[C@@H]([C@@H](C)CC)C(=O)N[C@@H]([C@@H](C)CC)C(=O)N[C@@H](C(C)C)C(=O)N[C@@H]([C@@H](C)O)C(=O)N[C@@H](Cc2c[nH]cn2)C(=O)N[C@@H](Cc2ccccc2)C(=O)N2CCC[C@H]2C(=O)N[C@@H](Cc2ccccc2)C(=O)N[C@@H](CC(=O)O)C(=O)N[C@@H](CCC(N)=O)C(=O)N[C@@H](CCC(N)=O)C(=O)N[C@@H](CC(N)=O)C(=O)N1)[C@@H](C)O)C(=O)O [α125-148] (H-KSYCEIIVTHFPFDQQNCTMKLGI-OH; disulfide 4-18)		-15.9%	56%			3626+2214 cpm	consistently greater than the other two controls	no decrease		
